In ChEMBL document CHEMBL1147284, “Alkaloids from the Leaves of Prosopis juliflora” (J Nat Prod, 1989):
Active and inactive are the calls of the source.

Columns and labels:
Format in all cases: functional, organism-based
Staphylococcus aureus = test: Antibacterial activity against Staphylococcus aureus B827 after 24 hrs
Escherichia coli [1] = test: Antibacterial activity against Escherichia coli K125 HER 1037 after 24 hrs
Pseudomonas aeruginosa = test: Antibacterial activity against Pseudomonas aeruginosa PAO1 HER 1018 after 24 hrs
Shigella sonnei = test: Antibacterial activity against Shigella sonnei YER HER 1048 after 24 hrs
Klebsiella pneumoniae = test: Antibacterial activity against Klebsiella pneumoniae C3 HER 1111 after 24 hrs
Escherichia coli [2] = test: Antibacterial activity against Escherichia coli 11303 HER 1024 after 24 hrs

Measured: Activity

C[C@@H]1N[C@H](CCCCCCCCCCc2cc(CCCCCCCCC[C@@H]3CC[C@H](O)[C@H](C)N3)c[n+]3c2C=CC3)CC[C@@H]1O
active: all assays above
